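48-hour exposure; five concentrations; linearly interpolated endpoints. GI50 marks 50% less growth.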 Calls of active or inactive are those of the source. Rule as the data show it: active = GI50 up to about 1.1 µM and inactive = higher.

The values that follow come from ChEMBL document CHEMBL1201862, “PubChem BioAssay data set” (2004).

Among the test systems are UO-31; RXF 393; HCT-116; HCT-15; SW-620; CCRF-CEM; SR; COLO 205; IGROV-1; SK-MEL-2; SK-MEL-5; HL-60; UACC-257; KM12; Hs-578T; PC-3; CAKI-1; T47D; MCF7.
Common to all, as to assay: NCI tumour cell line growth inhibition, 48 h

For `O=C1OC(c2ccccc2)=N/C1=C/NC(CS)C(=O)O` (centres undefined), the GI50 with UO-31 was > 100 µM (inactive); in the assay on RXF 393 it was > 100 µM (inactive); in the assay with HCT-116, > 100 µM (inactive); in the assay with HCT-15 it was more than 100 µM; in the assay with SW-620, > 100 µM (inactive); in the assay on CCRF-CEM, > 100 µM (inactive). Further, the GI50 in the assay on SR, with COLO 205, with IGROV-1, in the assay on SK-MEL-2, with SK-MEL-5 and in the assay on HL-60 was > 100 µM (inactive) throughout. In addition, in the assay with UACC-257, the GI50 was > 100 µM (inactive).

Turning to `N#Cc1c(N2CCCC2)nsc1Nc1ccccc1`, the GI50 was > 100 µM (inactive) with KM12; > 100 µM (inactive) with UO-31; > 100 µM (inactive) with RXF 393; > 100 µM (inactive) with Hs-578T; > 100 µM (inactive) in the assay on HCT-116; more than 100 µM in the assay on HCT-15. The GI50 with SW-620, with CCRF-CEM, in the assay on SR, with PC-3, in the assay with COLO 205 and with IGROV-1 was > 100 µM (inactive) in each case. Besides, the GI50 was > 100 µM (inactive) in the assay on SK-MEL-2; > 100 µM (inactive) with SK-MEL-5; > 100 µM (inactive) in the assay on HL-60; > 10 µM (inactive) in the assay on CAKI-1; > 100 µM (inactive) with T47D; > 100 µM (inactive) in the assay with UACC-257.

With `CCCCCNC(=O)CCCCCCCCCCCNC(=O)CCCCCCCCCCN1C=CC(=CC=C2C=CC(=O)C=C2)C=C1`, the GI50 with KM12 is 37.4 µM (inactive); in the assay with UO-31, > 100 µM (inactive); in the assay on RXF 393 it was > 100 µM (inactive); with HCT-116, > 100 µM (inactive); in the assay on HCT-15, more than 100 µM; in the assay on SW-620, 54.1 µM (inactive). Besides, the GI50 in the assay on CCRF-CEM was 15.1 µM (inactive); in the assay on SR, 6.64 µM (inactive); in the assay with COLO 205 it was 15.3 µM (inactive); in the assay with IGROV-1 it was 28.4 µM (inactive); with SK-MEL-5, 35.2 µM (inactive); with HL-60, 2.51 µM (inactive). The figures for the GI50 in the assay with CAKI-1 and with UACC-257 were > 100 µM (inactive) and 16.6 µM (inactive), respectively.

`C/C(=N\NC(N)=S)c1cc(C)c(C)cc1C`: the GI50 is 25.5 µM (inactive) in the assay on KM12; 56.8 µM (inactive) in the assay on UO-31; 29 µM (inactive) with RXF 393; > 100 µM (inactive) in the assay on HCT-116; 83.8 µM in the assay with HCT-15; 44 µM (inactive) with SW-620. The GI50 in the assay with CCRF-CEM was 29.9 µM (inactive); in the assay on SR, 37 µM (inactive); in the assay with COLO 205 it was 27.7 µM (inactive); in the assay on IGROV-1, 31 µM (inactive); in the assay with SK-MEL-2, 34.6 µM (inactive); with SK-MEL-5, 57 µM (inactive). Besides, the GI50 in the assay with HL-60 is 21.7 µM (inactive); in the assay with CAKI-1, > 100 µM (inactive); in the assay on UACC-257, 90.8 µM (inactive).

`O=C1C(c2ccccc2)=C(O)c2cccc3cccc1c23`: the GI50 in the assay on KM12 is > 100 µM (inactive); in the assay with UO-31 it was > 100 µM (inactive); in the assay on RXF 393, > 100 µM (inactive); in the assay with HCT-116, > 100 µM (inactive); with HCT-15, more than 100 µM; with SW-620 it was > 100 µM (inactive). Also, the GI50 in the assay on CCRF-CEM, in the assay on SR, in the assay on COLO 205, in the assay with IGROV-1, in the assay with SK-MEL-2 and in the assay with SK-MEL-5 was > 100 µM (inactive) each time. The GI50 with HL-60, with CAKI-1 and with UACC-257 was > 100 µM (inactive) throughout.

With `O=C(NC1C(=O)NNC1c1ccccc1Cl)c1ccccc1` (centres undefined), the GI50 with KM12 was > 100 µM (inactive); with UO-31 it was > 100 µM (inactive); in the assay with RXF 393, > 100 µM (inactive); in the assay on HCT-116, > 100 µM (inactive); with HCT-15, more than 100 µM; in the assay on SW-620, > 100 µM (inactive). For the same compound, the GI50 in the assay on CCRF-CEM was > 100 µM (inactive); in the assay with SR, 42.2 µM (inactive); in the assay on COLO 205 it was > 100 µM (inactive); with IGROV-1, > 100 µM (inactive); in the assay with SK-MEL-2, > 100 µM (inactive); in the assay with SK-MEL-5 it was > 100 µM (inactive). Besides, the GI50 with HL-60, in the assay on CAKI-1 and with UACC-257 was > 100 µM (inactive) in each case.

For the compound `COc1ccc2c3c([nH]c2c1)CCN(Cc1ccccc1)C3`, the GI50 with KM12 is 22 µM (inactive); in the assay with UO-31, 12.4 µM (inactive); with RXF 393, 18.3 µM (inactive); in the assay on MCF7, 17.5 µM (inactive); in the assay with Hs-578T, 24.6 µM (inactive); in the assay on HCT-116 it was 24 µM (inactive). For the same compound, the GI50 in the assay on HCT-15 was 17.9 µM; in the assay on SW-620, 23.2 µM (inactive); in the assay with CCRF-CEM, 34.3 µM (inactive); in the assay with SR, 17.4 µM (inactive); in the assay with COLO 205 it was 18.7 µM (inactive); with IGROV-1, 73.6 µM (inactive). In addition, the GI50 in the assay with SK-MEL-5 is 17 µM (inactive); in the assay on HL-60, 17.5 µM (inactive); in the assay with T47D it was 19.4 µM (inactive); in the assay with UACC-257, 19.6 µM (inactive).

As for `[N-]=[N+]=Nc1c(Cl)c(Cl)nc2ccccc12`, the GI50 was > 100 µM (inactive) with KM12; > 100 µM (inactive) with UO-31; 88.5 µM (inactive) in the assay on RXF 393; 54.5 µM (inactive) with MCF7; 61.8 µM (inactive) with Hs-578T; > 100 µM (inactive) in the assay on HCT-116. Further, the GI50 in the assay with HCT-15 was more than 100 µM; in the assay on SW-620, 93.8 µM (inactive); in the assay with CCRF-CEM, 54.5 µM (inactive); with SR, > 100 µM (inactive); in the assay with PC-3, > 100 µM (inactive); in the assay with COLO 205, > 100 µM (inactive). The GI50 in the assay on IGROV-1 is 77.6 µM (inactive); in the assay on SK-MEL-2 it was > 100 µM (inactive); in the assay with SK-MEL-5, > 100 µM (inactive); in the assay with CAKI-1 it was 21.2 µM (inactive); in the assay on T47D, 68.1 µM (inactive); in the assay with UACC-257 it was > 100 µM (inactive).

For the compound `COC1CC(C)C(OC)c2cc(O)cc(c2O)NC(=O)/C(C)=C/C=C\C(C)C(OC(N)=O)/C(C)=C\C(C)C1OC` (centres undefined), the GI50 was 0.255 µM (active) in the assay on KM12; 7.11 µM (inactive) with UO-31; 0.316 µM (active) in the assay on RXF 393; 0.125 µM (active) in the assay on MCF7; 0.297 µM (active) with HCT-116; 5.6 µM in the assay on HCT-15. Also, the GI50 in the assay with SW-620 was 0.082 µM (active); in the assay with CCRF-CEM, 0.192 µM (active); in the assay on SR it was 0.0396 µM (active); in the assay with PC-3 it was 0.228 µM (active); in the assay on COLO 205, 0.0516 µM (active); in the assay with IGROV-1, 0.221 µM (active). Besides, the GI50 in the assay with SK-MEL-2 was 1.69 µM (inactive); with SK-MEL-5, 0.268 µM (active); with T47D, 0.266 µM (active); in the assay on UACC-257 it was 0.397 µM (active).

For the compound `O=C(O)Cc1ccccc1CCc1ccccc1Cl`, the GI50 in the assay on KM12 is > 100 µM (inactive); with UO-31, > 100 µM (inactive); with RXF 393, > 100 µM (inactive); with HCT-116, > 100 µM (inactive); in the assay on HCT-15, more than 100 µM; in the assay on SW-620, > 100 µM (inactive). The GI50 in the assay with CCRF-CEM was > 100 µM (inactive); with SR, > 100 µM (inactive); in the assay with COLO 205, > 100 µM (inactive); in the assay on IGROV-1 it was > 100 µM (inactive); with SK-MEL-2, 30.8 µM (inactive); with SK-MEL-5, > 100 µM (inactive). Besides, the GI50 with HL-60, with CAKI-1 and with UACC-257 was > 100 µM (inactive) in each case.

With `c1cncc(C2c3[nH]c4ccccc4c3CCN2CCCN2CCCCC2)c1` (centres undefined), the GI50 with KM12 is > 100 µM (inactive); in the assay with UO-31, 81.1 µM (inactive); with RXF 393, 53.6 µM (inactive); in the assay on HCT-116 it was > 100 µM (inactive); in the assay on HCT-15 it was more than 100 µM; in the assay on SW-620, > 100 µM (inactive). For the same compound, the GI50 with SR is > 100 µM (inactive); in the assay on COLO 205, 84.3 µM (inactive); in the assay on IGROV-1, > 100 µM (inactive); in the assay with SK-MEL-2 it was > 100 µM (inactive); in the assay on SK-MEL-5 it was 37.2 µM (inactive); with HL-60, > 100 µM (inactive). Moreover, the GI50 with CAKI-1 is > 100 µM (inactive); in the assay on UACC-257, 60.7 µM (inactive).

On to `O/N=C1/CCCC/C1=C/C=C/c1ccccc1`, for which the GI50 in the assay with KM12 is 20.1 µM (inactive); in the assay on UO-31 it was 20.6 µM (inactive); in the assay on RXF 393, 19.4 µM (inactive); with HCT-116 it was 15.7 µM (inactive); in the assay with HCT-15 it was 14.9 µM; with SW-620, 26.5 µM (inactive). In addition, the GI50 in the assay with CCRF-CEM is 20.6 µM (inactive); with SR it was 5.71 µM (inactive); in the assay with COLO 205, 19.4 µM (inactive); in the assay with IGROV-1, 16.5 µM (inactive); in the assay with SK-MEL-2, 17.7 µM (inactive); in the assay with SK-MEL-5, 16.5 µM (inactive). Besides, the GI50 with HL-60 was 13.1 µM (inactive); with CAKI-1, 35.7 µM (inactive); in the assay on UACC-257, 24.9 µM (inactive).

As for `C#C[C@]1(O)CC[C@H]2[C@@H]3CCc4cc(O)ccc4[C@H]3CC[C@@]21C` [ETHINYL ESTRADIOL], the GI50 is 13.6 µM (inactive) in the assay on KM12; > 10 µM (inactive) with UO-31; 29 µM (inactive) in the assay on RXF 393; 23 µM (inactive) in the assay on HCT-116; 15.4 µM with HCT-15; 16.1 µM (inactive) with SW-620. Further, the GI50 with CCRF-CEM is 23.1 µM (inactive); with SR it was 16.7 µM (inactive); in the assay on COLO 205, 31.3 µM (inactive); in the assay on IGROV-1, 55.5 µM (inactive); in the assay on SK-MEL-2, 24.5 µM (inactive); in the assay on SK-MEL-5, 11.1 µM (inactive). The figures for the GI50 with HL-60, in the assay on CAKI-1 and with UACC-257 were 21.7 µM (inactive), 52.6 µM (inactive) and 41 µM (inactive), respectively.
